In patent US5700801A, “Piperazine derivatives, pharmaceutical compositions containing these compounds, their use and processes for preparing them” (Karl Thomae, GmbH, priority 1994, dated 1997):
Where a name gives a salt, the structure may show the parent alone.

Key:
[1] = test system: thrombocyte aggregation in platelet-rich plasma taken from healthy volunteers; assay: Antithrombotic activity: inhibition of collagen-induced platelet aggregation (Born and Cross) in platelet-rich plasma; format: cell-based; conditions: Homo sapiens, 10 minutes preincubation at 37° C.
Procedure: 2. Antithrombotic activity
The thrombocyte aggregation is measured using the method of Born and Cross (J. Physiol. 170: 397 (1964)) in platelet-rich plasma taken from healthy volunteers. To inhibit coagulation, the blood is mixed with 3.14% sodium citrate in a volume ratio of 1:10.
Collagen-induced aggregation
The pattern of the decrease in optical density of the platelet suspension is photometrically measured and recorded after the addition of the aggregation-triggering substance. The rate of aggregation is determined from the angle of inclination of the density curve. The point on the curve where there is maximum light transmittance is used to calculate the optical density.
The concentration of collagen used is as small as possible but sufficient to produce an irreversible reaction curve. Standard commercial collagen produced by Hormonchemie of Munich is used.
Before the addition of the collagen the plasma is incubated for 10 minutes with the substance at 37° C.
From the measurements obtained the EC50 is determined, which indicates the concentration giving a 50% change in the optical density in terms of the inhibition of aggregation.

human thrombocytes = assay: Inhibition of binding of ^3 H-BIBU 52 to human thrombocytes (table: Fibrinogen binding test); conditions: ^3 H-BIBU 52 (5 nM), human thrombocytes in plasma, ambient temperature, 20 minutes
Procedure: 1. Inhibition of binding of ^3 H-BIBU 52 to human thrombocytes:
A suspension of human thrombocytes in plasma is incubated with ^3 H-BIBU 52 [=(3S,5S)-5-[(4'-amidino-4-biphenylyl)oxymethyl]-3-[(carboxyl)methyl]-2-pyrrolidinone[3-^3 H-4-biphenylyl]] (see DE-A-4,214,245), which replaces the ^125 I fibrinogen ligand known from the literature, and various concentrations of the substance to be tested. The free and bound ligand is separated by centrifuging and quantified by scintillation counting. The inhibition of ^3 H-BIBU 52 binding by the test substance is determined from the measurements obtained.
In order to do this, donor blood is taken from an anticubital vein and anticoagulated with trisodium citrate (final concentration 13 mM). The blood is centrifuged for 10 minutes at 170×g and the supernatant platelet-rich plasma (PRP) is removed. The remaining blood is vigorously centrifuged once more in order to obtain plasma. The PRP is diluted 1:10 with autologous plasma. 750 μl are incubated with 50 μl of physiological saline solution, 100 μl of test substance solution, 50 μl of ^14 C-sucrose (3,700 Bq) and 50 μl of ^3 H-BIBU 52 (final concentration: 5 nM) at ambient temperature for 20 minutes. In order to measure the non-specific binding, 5 μl of BIBU 52 (final concentration: 30 μM) are used instead of the test substance. The samples are centrifuged for 20 seconds at 10,000×g and the supernatant is poured off. 100 μl thereof are counted in order to determine the amount of free ligand. The pellet is dissolved in 500 μl of 0.2N NaOH, 450 μl are mixed with 2 ml of scintillator and 25 μl of 5N HCl and measured. The residual plasma remaining in the pellet is determined from the ^14 C-content and the bound ligand is determined from the ^3 H-measurement. After the non-specific binding has been deducted, the pellet activity is plotted against the concentration of the test substance and the concentration for a 50% inhibition of binding is determined.

IC50 (human thrombocytes) | Structure (SMILES) | EC50 [1]
0.41 nM | O=C(O)CCN1CCC(NC(=O)N2CCN(c3ccncc3)CC2)CC1 [5(8), 3-[4-[4-(4-pyridyl)-piperazin-1-yl]carbonylamino]piperidinopropionic acid dihydrochloride] | 0.6 nM
> 100 nM | COC(=O)[C@H]1CC[C@H](NC(=O)CCN2CCN(c3ccncc3)CC2)CC1 [Example 1, Methyl[4-trans-[3-[4-(4-pyridyl)-piperazin-1-yl]propionyl]-amino]cyclohexane carboxylate] | 3.32 nM
0.43 nM | O=C(O)CN1CCC(NC(=O)N2CCN(c3ccncc3)CC2)CC1 [5(9), [4-[4-(4-Pyridyl)-piperazin-1-yl]carbonylamino]piperidino-acetic acid] | 4.4 nM
0.23 nM | O=C(CC(=O)N1CCN(c2ccncc2)CC1)N[C@H]1CC[C@H](C(=O)O)CC1 [5(7), [4-trans-[4-(4-Pyridyl)-piperazin-1-yl]malonylamino]cyclohexylcarboxylic a cid hydrochloride] | 0.25 nM
0.25 nM | O=C(O)CC[C@H]1CC[C@H](NC(=O)N2CCN(c3ccncc3)CC2)CC1 [5(6), 3-[4-trans-[4-(4-Pyridyl)-piperazin-1-yl]carbonylamino]cyclohexylpropionicacid hydrochloride] | 0.16 nM
0.21 nM | O=C(CCN1CCN(c2ccncc2)CC1)N[C@H]1CC[C@H](C(=O)O)CC1 [Example 5, [4-trans-[3-[4-(4-Pyridyl)-piperazin-1-yl]propionyl]amino]-cyclohexane-carboxylic acid dihydrochloride] | 0.26 nM
